From publication PMC8991199, “Promiscuity mapping of the S100 protein family using a high-throughput holdup assay” (Scientific Reports, 2022) come the findings set out here.

“Also recorded” adds a separate entry of the source.

Format in all cases: binding
The target of one test is T1, S100A9 (Homo sapiens, UniProt P06702).
T1 sequence (P06702 1-114): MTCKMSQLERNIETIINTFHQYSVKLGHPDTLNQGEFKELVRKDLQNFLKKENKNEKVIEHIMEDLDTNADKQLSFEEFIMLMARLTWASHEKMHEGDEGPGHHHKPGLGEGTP
The experiment in a line: direct fluorescence polarization (FP), S100A9. The note with it: S100A9, 50 nM labeled foldamer, 20 mM HEPES pH 7.5, 150 mM NaCl, 1 mM CaCl2, 0.5 mM TCEP, 0.01% Tween20, quadratic fit, mean ± SEM, three technical repeats, threshold 1 mM. How it is done:
(§1) HTP (and also low-throughput) measurements generally need to be validated by an orthogonal approach to eliminate experimental artifacts. […] This way, we chose WL, IF, WW, YF, IL, VL, TW, RF, RR, TI, TM, and after resynthesizing with a fluorescent label at the C-terminus (Figs. S15–S26, Table S1), the S100ome was tested against the labeled foldamers by direct fluorescence polarization (FP) (Fig. 3A). In this assay, the association of the fluorescently labeled foldamer and the S100 protein of interest is monitored, through the change in polarization of the emitted light by the fluorophore upon the binding event. In direct FP, the presence of the fluorophore might change the binding affinity of some foldamers. […] Nevertheless, we assumed that the fluorophore would affect all foldamers that target the same binding site to the same degree, because the foldamer scaffold is rigid. Defining the threshold of detection at the dissociation constant of 1 mM, we identified 87 interactions between the selected foldamer fragments and the S100ome out of 220 possible interactions (Table 1, Fig. S4-14).
(§2) Briefly, S100 proteins were cloned into a modified pET15b vector with a TEV protease cleavable N-terminal His6-tag and expressed in Escherichia coli BL21 (DE3) cells, followed by Ni^2+-affinity chromatography. For HU assay, S100 proteins were further purified by either hydrophobic interaction chromatography or ion exchange chromatography without the cleavage of the N-terminal His6-tag applying standard conditions. For direct FP measurements, the N-terminal His6-tag was cleaved, and the S100 proteins were purified by hydrophobic interaction chromatography, ion exchange chromatography or size exclusion chromatography. The quality of the recombinant proteins was checked by SDS-PAGE analysis in all cases. The concentration of the recombinant S100 proteins was determined by UV spectrophotometry using the absorbance of Tyr and Trp residues.
(§3) In direct fluorescence polarization assays, S100 proteins were diluted in a buffer containing 50 nM labeled foldamer, 20 mM HEPES pH 7.5, 150 mM NaCl, 1 mM CaCl2, 0.5 mM TCEP and 0.01% Tween20. The dilution series (50 µl) were divided into three technical repeats and transferred (15 µl) to a 384-well microplate. In competitive fluorescence polarization assays, the buffer applied in direct measurements was supplemented with the S100 protein of interest to reach a saturation of 60–80%. This mixture was titrated with the competitor (i.e. the unlabeled peptide). Fluorescence polarization was measured in 8 different S100 concentrations (one of which contained no S100 protein) on a Synergy H4 plate reader using 485 ± 20 nm and 528 ± 20 nm band-pass filters for excitation and emission, respectively. The Kd values were obtained by fitting the data from the FP measurements with the python-based ProFit software using quadratic and competitive binding equation for direct and competitive FP, respectively. The detection threshold was based on two parameters. First, we rejected all fitted dissociation constants above 1 mM.
In general terms: In fluorescence polarisation assays a small probe gives low polarisation when free and higher when bound to something large.

In the next test the target is T2, S100A5 (Homo sapiens, UniProt P33763).
T2 sequence (P33763 1-92): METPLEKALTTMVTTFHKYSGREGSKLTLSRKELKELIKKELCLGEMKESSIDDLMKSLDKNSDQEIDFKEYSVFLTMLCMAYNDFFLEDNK
The test can be described thus: direct fluorescence polarization (FP), S100A5. Particulars: for binding to S100A5 in the absence of Ca2+: Fig. 3C middle panels, direct FP in the presence of EDTA; for Kd: direct FP, S100A5, 50 nM labeled foldamer, 20 mM HEPES pH 7.5, 150 mM NaCl, 1 mM CaCl2, 0.5 mM TCEP, 0.01% Tween20, quadratic fit, mean ± SEM, three technical repeats, threshold 1 mM. The protocol: as §1
To ensure that foldamer fragments bind to the hydrophobic binding groove of S100 proteins, which opens upon binding of calcium ions, we performed FP experiments on a selected S100 protein, S100A5, in the presence of EDTA and TRTK12, an S100-binding peptide of 12 amino acids. […] Based on the similarity and redundancy among the S100 family, it can be assumed that all S100 proteins bind the members of the H14 foldamer library through their hydrophobic binding pocket in a Ca^2+-dependent manner.
as §2, §3

The next test deals with T3, S100A14 (Homo sapiens, UniProt Q9HCY8).
T3 sequence (Q9HCY8 1-104): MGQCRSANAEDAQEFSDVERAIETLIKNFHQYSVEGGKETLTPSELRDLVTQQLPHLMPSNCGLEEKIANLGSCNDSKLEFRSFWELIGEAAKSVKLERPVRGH
The test can be described thus: direct fluorescence polarization (FP), S100A14. The note with it: S100A14, 50 nM labeled foldamer, 20 mM HEPES pH 7.5, 150 mM NaCl, 1 mM CaCl2, 0.5 mM TCEP, 0.01% Tween20, quadratic fit, mean ± SEM, three technical repeats, threshold 1 mM. How it is done: as §1, §2, §3

A further test addresses T4, S100A3 (Homo sapiens, UniProt P33764).
T4 sequence (P33764 1-101): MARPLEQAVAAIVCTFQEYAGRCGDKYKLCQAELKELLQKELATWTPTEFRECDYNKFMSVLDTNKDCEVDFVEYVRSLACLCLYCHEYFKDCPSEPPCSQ
The experiment in a line: direct fluorescence polarization (FP), S100A3. The note with it: S100A3, 50 nM labeled foldamer, 20 mM HEPES pH 7.5, 150 mM NaCl, 1 mM CaCl2, 0.5 mM TCEP, 0.01% Tween20, quadratic fit, mean ± SEM, three technical repeats, threshold 1 mM. The protocol:
as §1, §2, §3

A further test deals with T5, S100A1 (Homo sapiens, UniProt P23297).
T5 sequence (P23297 1-94): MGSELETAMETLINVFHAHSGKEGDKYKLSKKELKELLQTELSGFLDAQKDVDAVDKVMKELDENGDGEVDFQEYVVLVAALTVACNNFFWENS
The test can be described thus: direct fluorescence polarization (FP), S100A1. The note with it: S100A1, 50 nM labeled foldamer, 20 mM HEPES pH 7.5, 150 mM NaCl, 1 mM CaCl2, 0.5 mM TCEP, 0.01% Tween20, quadratic fit, mean ± SEM, three technical repeats, threshold 1 mM.
Description: (§4) HTP (and also low-throughput) measurements generally need to be validated by an orthogonal approach to eliminate experimental artifacts. […] In this assay, the association of the fluorescently labeled foldamer and the S100 protein of interest is monitored, through the change in polarization of the emitted light by the fluorophore upon the binding event. In direct FP, the presence of the fluorophore might change the binding affinity of some foldamers. […] Nevertheless, we assumed that the fluorophore would affect all foldamers that target the same binding site to the same degree, because the foldamer scaffold is rigid.
as §2, §3

In another test the target is S100A6 (Homo sapiens, UniProt P06703). The experiment in a line: direct fluorescence polarization (FP), S100A6.
Description: as §4, §2, §3

One may read the Kd as the constant that tells how readily two partners part at equilibrium. For `CC[C@H](C)[C@@H](CC(=O)N[C@H]1CCCC[C@@H]1C(=O)N[C@H]1CCCC[C@@H]1C(=O)N[C@H](CC(=O)N[C@H]1CCCC[C@@H]1C(=O)NCC(=O)N[C@@H](CCCCNC(=O)c1ccc2c(c1)C1(OC2=O)c2ccc(O)cc2Oc2cc(O)ccc21)C(N)=O)Cc1ccccc1)NC(=O)[C@H]1CCCC[C@@H]1N` [fIF], the Kd on S100A9 was > 1000 µM; at S100A5, 27 ± 0.53 µM; at S100A14 it was > 1000 µM; on S100A3, 180 ± 8.4 µM; at S100A1, 210 ± 13 µM. Moreover, the “binding to S100A5 in the absence of Ca2+” value on S100A5 is “loss of binding event; also recorded: unable to interact”.

Take `CC[C@H](C)[C@@H](CC(=O)N[C@H]1CCCC[C@@H]1C(=O)N[C@H]1CCCC[C@@H]1C(=O)N[C@H](CC(=O)N[C@H]1CCCC[C@@H]1C(=O)NCC(=O)N[C@@H](CCCCNC(=O)c1ccc2c(c1)C1(OC2=O)c2ccc(O)cc2Oc2cc(O)ccc21)C(N)=O)CC(C)C)NC(=O)[C@H]1CCCC[C@@H]1N` [fIL]: the Kd on S100A9 is > 1000 µM; at S100A5, 75 ± 3.6 µM; at S100A14, > 1000 µM; on S100A3 it was > 1000 µM.

Turning to `N=C(N)NCCC[C@@H](CC(=O)N[C@H]1CCCC[C@@H]1C(=O)N[C@H]1CCCC[C@@H]1C(=O)N[C@H](CC(=O)N[C@H]1CCCC[C@@H]1C(=O)NCC(=O)N[C@@H](CCCCNC(=O)c1ccc2c(c1)C1(OC2=O)c2ccc(O)cc2Oc2cc(O)ccc21)C(N)=O)Cc1ccccc1)NC(=O)[C@H]1CCCC[C@@H]1N` [fRF], the Kd on S100A9 was > 1000 µM; on S100A5, 46 ± 1.2 µM; on S100A14, > 1000 µM; at S100A3, > 1000 µM; on S100A1 it was 413 ± 81 µM.

Consider `N=C(N)NCCC[C@@H](CC(=O)N[C@H]1CCCC[C@@H]1C(=O)NCC(=O)N[C@@H](CCCCNC(=O)c1ccc2c(c1)C1(OC2=O)c2ccc(O)cc2Oc2cc(O)ccc21)C(N)=O)NC(=O)[C@H]1CCCC[C@@H]1NC(=O)[C@H]1CCCC[C@@H]1NC(=O)C[C@H](CCCNC(=N)N)NC(=O)[C@H]1CCCC[C@@H]1N` [fRR], for which the Kd at S100A9 was > 1000 µM; at S100A5, 45 ± 0.81 µM; on S100A14 it was > 1000 µM; on S100A6, > 1000 µM; on S100A3, > 1000 µM; at S100A1, 280 ± 38 µM.

On to `CC[C@H](C)[C@@H](CC(=O)N[C@H]1CCCC[C@@H]1C(=O)NCC(=O)N[C@@H](CCCCNC(=O)c1ccc2c(c1)C1(OC2=O)c2ccc(O)cc2Oc2cc(O)ccc21)C(N)=O)NC(=O)[C@H]1CCCC[C@@H]1NC(=O)[C@H]1CCCC[C@@H]1NC(=O)C[C@@H](NC(=O)[C@H]1CCCC[C@@H]1N)[C@@H](C)O` [fTI], for which the Kd at S100A9 is > 1000 µM; on S100A5 it was 270 ± 14 µM; at S100A14, > 1000 µM; at S100A6, 699 ± 63 µM; at S100A3, > 1000 µM; at S100A1, > 1000 µM.

With `CSCC[C@@H](CC(=O)N[C@H]1CCCC[C@@H]1C(=O)NCC(=O)N[C@@H](CCCCNC(=O)c1ccc2c(c1)C1(OC2=O)c2ccc(O)cc2Oc2cc(O)ccc21)C(N)=O)NC(=O)[C@H]1CCCC[C@@H]1NC(=O)[C@H]1CCCC[C@@H]1NC(=O)C[C@@H](NC(=O)[C@H]1CCCC[C@@H]1N)[C@@H](C)O` [fTM], the Kd on S100A9 is > 1000 µM; at S100A5, 204 ± 9.2 µM; on S100A14, > 1000 µM; on S100A6 it was 517 ± 57 µM; on S100A3, > 1000 µM; on S100A1, > 1000 µM.

With `C[C@@H](O)[C@@H](CC(=O)N[C@H]1CCCC[C@@H]1C(=O)N[C@H]1CCCC[C@@H]1C(=O)N[C@H](CC(=O)N[C@H]1CCCC[C@@H]1C(=O)NCC(=O)N[C@@H](CCCCNC(=O)c1ccc2c(c1)C1(OC2=O)c2ccc(O)cc2Oc2cc(O)ccc21)C(N)=O)Cc1c[nH]c2ccccc12)NC(=O)[C@H]1CCCC[C@@H]1N` [fTW], the Kd is > 1000 µM on S100A9; 62 ± 1.4 µM at S100A5; > 1000 µM on S100A14; > 1000 µM at S100A3; 330 ± 20 µM on S100A1.

For the compound `CC(C)C[C@@H](CC(=O)N[C@H]1CCCC[C@@H]1C(=O)NCC(=O)N[C@@H](CCCCNC(=O)c1ccc2c(c1)C1(OC2=O)c2ccc(O)cc2Oc2cc(O)ccc21)C(N)=O)NC(=O)[C@H]1CCCC[C@@H]1NC(=O)[C@H]1CCCC[C@@H]1NC(=O)C[C@@H](NC(=O)[C@H]1CCCC[C@@H]1N)C(C)C` [fVL], the Kd is > 1000 µM at S100A9; 110 ± 5.4 µM at S100A5; > 1000 µM on S100A14; > 1000 µM on S100A3; 97 ± 12 µM at S100A1.

As to `CC(C)C[C@@H](CC(=O)N[C@H]1CCCC[C@@H]1C(=O)NCC(=O)N[C@@H](CCCCNC(=O)c1ccc2c(c1)C1(OC2=O)c2ccc(O)cc2Oc2cc(O)ccc21)C(N)=O)NC(=O)[C@H]1CCCC[C@@H]1NC(=O)[C@H]1CCCC[C@@H]1NC(=O)C[C@H](Cc1c[nH]c2ccccc12)NC(=O)[C@H]1CCCC[C@@H]1N` [fWL], the Kd is > 1000 µM at S100A9; 14 ± 0.55 µM at S100A5; > 1000 µM at S100A14; 30 ± 1.7 µM on S100A6; > 1000 µM on S100A3; 53 ± 5.2 µM at S100A1. The “binding to S100A5 in the absence of Ca2+” value on S100A5 is listed as “loss of binding event; also recorded: unable to interact”.

As for `NC(=O)[C@H](CCCCNC(=O)c1ccc2c(c1)C1(OC2=O)c2ccc(O)cc2Oc2cc(O)ccc21)NC(=O)CNC(=O)[C@H]1CCCC[C@@H]1NC(=O)C[C@H](Cc1ccccc1)NC(=O)[C@H]1CCCC[C@@H]1NC(=O)[C@H]1CCCC[C@@H]1NC(=O)C[C@H](Cc1ccc(O)cc1)NC(=O)[C@H]1CCCC[C@@H]1N` [fYF], the Kd at S100A9 was > 1000 µM; on S100A5 it was 32 ± 1 µM; on S100A14, > 1000 µM; on S100A3 it was > 1000 µM; at S100A1, 110 ± 9.8 µM.
